From patent US20240210412A1, “SULFONYL-TRIAZOLE COMPOUNDS USEFUL AS LIGANDS AND INHIBITORS OF PROSTAGLANDIN REDUCTASE 2” (University of Virginia Patent Foundation, priority 2021, published 2024)

How the values were obtained:
[1] = target: T1, PTGR2 (Homo sapiens, UniProt Q8N8N7); test: in vitro gel-based chemical proteomics competition, RJS-1027 probe; type: binding; details: inhibitor 0.5 μM, RJS-1027 1 μM, HEK293T soluble proteome
T1 construct: host or cells: HEK293T
Method: Cell pellets were lysed in PBS buffer (EDTA free) by sonicating 3 times for 1 second×20% amplitude. The lysate was fractionated by centrifuging at 100,000×g for 45 min at 4° C., separating membrane and soluble fractions. Only the soluble fraction was used for in vitro and in situ experiments. Protein concentrations were measured using the Bio-Rad DC protein assay, and fractions were diluted to a concentration of 2 mg/mL in PBS. For live cell treated samples, 50 μL aliquots of proteome were used for gel experiments. For in vitro experiments, 48 μL aliquots of cell lysate were used for each inhibitor before adding 1 μL of 50× inhibitor stock (1 μM final) and incubated for 30 minutes at 37° C., then 1 μL of 50×probe stock (1 μM final) was added and the lysate incubated for 30 minutes at 37° C. […] 30 μL of each sample were separated by SDSPAGE and analyzed by in-gel fluorescence scanning for the rhodamine azide tag. […]
FIG. 9A is an image of an in vitro gel-based chemical proteomics assay using RJS-1027 (1 μM) as a probe to measure competition of binding PTGR2 with an inhibitor (0.5 μM). […] Quantitative comparison of inhibitor competition with probe labeling normalized to the negative control HHS-0101 is shown in FIG. 9B. […] Quantitative comparison of RJG-2036 competition with probe labeling normalized to the negative control HHS-0101 is shown in FIG. 9D.

[2] = target: T1, PTGR2; test: gel-based ABPP, HHS-475 probe, HEK293T cells expressing recombinant PTGR2; type: cell-based; details: 25 μM-0.1 μM, 2 h; HHS-475 25 μM 2 h; compared with AMC-0702, HHS-0701
Method: HEK293T cells at 30-50% confluency were transfected with 2.6 μg of FAH or PTGR2 plasmid DNA in a serum-free media/polyethyleneimine solution for 48 hrs. The cells were washed once with warm, sterile DPBS (1×, 5 mL), and then 10 mL of serum-free media (supplemented with 1% L-glutamine) containing either DMSO or SuTEx fragment (in DMSO) was added. After 2 hrs, the cells were treated with 100 μM of SuTEx alkyne probe (HHS-475, 10 μL of 1000× DMSO stock) and incubated for an additional 2 hrs. The media was aspirated and cells washed with cold PBS (5 mL) and harvested. Cells were spun at 500×g for 5 min at 4° C. and supernatant was removed. Pellets were resuspended in 1 mL of cold DPB S and spun at 1,400×g for 3 min at 4° C. and supernatant was removed. The cells were lysed in PBS by sonication and fractionated (100,000×g, 45 min, 4° C.). The soluble fraction was diluted to 1 mg/mL in PBS and 49 μL was used for analysis. […] The samples were analyzed by SDS-PAGE (30 μL) and imaged by in-gel fluorescence scanning.
Confirmatory studies were also performed on prostaglandin reductase 2 (PTGR2) because of its role in the reduction of the bioactive lipid, 15-keto-PGE2^[17]. […] The remaining fluorescent signal detected on PTGR2 Y100F mutant protein is likely due to probe labeling of additional tyrosine sites identified on wild-type protein.
To assess the PTGR2 inhibitory activity of AMC-0702 and AMC-0703, HEK293T cells expressing PTGR2 were pretreated with vehicle, HHS-0101 (25 μM), HHS-0701 (25 μM), AMC-0702 (25 μM-0.1 μM), or AMC-0703 (25 μM-0.1 μM) for 2 hours followed by HHS-475 probe labelling in live cells (25 μM, 2 hours). Cells were lysed and probe-modified PTGR2 in proteomes detected by copper-catalyzed azide-alkyne cycloaddition conjugation of rhodamine-azide, SDS-PAGE, and in-gel fluorescence scanning. Inhibitory activity of compounds is determined by reductions in fluorescent band intensity from HHS-475 probe labeling of proteins detected in proteomes. […]

[3] = target: T2, recombinant prostaglandin reductase 2 (PTGR2) (Homo sapiens, UniProt Q8N8N7); test: in situ gel-based chemical proteomics competition, RJS-1027 probe; type: cell-based; details: RJS-1027 1 μM, normalized to PTGR2 WT, two biological replicates, read-out: 50% inhibitory concentration (IC50), competition with probe labeling
T2 construct: host or cells: HEK293T
Method: HEK293T cells were grown to 30-40% confluency and transiently transfected with wild type PTGR2 or Y100F PTGR2 mutant plasmid or DMSO by dissolving 20 μL of PEI (1 mg/mL) and 2.6 μg of plasmid in 0.6 mL of serum-free DMEM media. Transfected HEK293T cells were incubated at 37° C. with 5% CO2 and were harvested for in vitro experiments. For in situ experiments, cells were treated with either DMSO or inhibitors at a final concentration of 1 μM, or the indicated concentration, of inhibitors from a 1,000× stock in serum-free media. Cells were subsequently incubated at 37° C. with 5% CO2 for 2 hours, followed by treatment with DMSO or probe at a final concentration of 1 μM from a 1,000× stock in serum-free media. Cells were harvested and pelleted at 400×g for 5 min and the supernatant was decanted. […]
Cell pellets were lysed in PBS buffer (EDTA free) by sonicating 3 times for 1 second×20% amplitude. […] Protein concentrations were measured using the Bio-Rad DC protein assay, and fractions were diluted to a concentration of 2 mg/mL in PBS. […] 30 μL of each sample were separated by SDSPAGE and analyzed by in-gel fluorescence scanning for the rhodamine azide tag. […]
Anti-flag and GAPDH western blots are shown below the long gel and were performed separately. Quantitation of RJG-2036 competition with probe labeling normalized to the PTGR2 WT with RJS-1027 as a probe is shown in FIG. 10C.

T1 sequence (Q8N8N7 whole entry): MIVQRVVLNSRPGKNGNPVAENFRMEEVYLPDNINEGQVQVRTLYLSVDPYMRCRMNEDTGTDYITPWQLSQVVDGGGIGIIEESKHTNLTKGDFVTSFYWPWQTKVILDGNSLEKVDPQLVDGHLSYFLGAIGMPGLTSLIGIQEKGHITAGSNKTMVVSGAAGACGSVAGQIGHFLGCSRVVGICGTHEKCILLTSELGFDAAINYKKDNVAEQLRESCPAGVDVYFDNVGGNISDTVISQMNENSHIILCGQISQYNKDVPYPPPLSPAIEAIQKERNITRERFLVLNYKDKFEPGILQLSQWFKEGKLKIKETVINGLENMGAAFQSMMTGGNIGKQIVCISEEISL
T2 sequence (Q8N8N7 whole entry): as above

Row | competition of probe binding to PTGR2 [1] | potency against PTGR2 (reduction of HHS-475 probe labeling) [2] | IC50 [3] | SMILES
1 | potent inhibitors | highest potency against PTGR2 | – | COc1ccccc1N1CCN(C(=O)c2ccc(S(=O)(=O)n3cncn3)cc2)CC1 [AMC-0703, (4-((1H-1,2,4-triazol-1-yl)sulfonyl)phenyl)(4-(2-methoxyphenyl)piperazin-1-yl)methanone]
2 | potent inhibitors | – | – | COc1ccccc1N1CCN(C(=O)c2ccc(S(=O)(=O)n3cnc(-c4cccnc4)n3)cc2)CC1 [RJG-1189, (4-(2-methoxyphenyl)piperazin-1-yl)(4-((3-(pyridin-3-yl)-1H-1,2,4-triazol-1-yl)sulfonyl)phenyl)methanone]
3 | – | – | 89.5 nM | COc1ccccc1N1CCN(C(=O)c2cccc(S(=O)(=O)n3cncn3)c2)CC1 [RJG-2036, (3-((1H-1,2,4-triazol-1-yl)sulfonyl)phenyl)(4-(2-methoxyphenyl)piperazin-1-yl)methanone]
